Assay results published in patent publication US20090062361A1, “THERAPEUTIC HYDANTOINS” (ALLERGAN, INC., priority 2007, published 2009).
pEC50, pKi: −log10 of the molar value.

What was measured:
hEP3A = biological target: T1, hEP3A (Homo sapiens, UniProt P43115); assay: Other receptors functional assay, hEP3A; format: cell-based
T1 sequence (P43115 1-390): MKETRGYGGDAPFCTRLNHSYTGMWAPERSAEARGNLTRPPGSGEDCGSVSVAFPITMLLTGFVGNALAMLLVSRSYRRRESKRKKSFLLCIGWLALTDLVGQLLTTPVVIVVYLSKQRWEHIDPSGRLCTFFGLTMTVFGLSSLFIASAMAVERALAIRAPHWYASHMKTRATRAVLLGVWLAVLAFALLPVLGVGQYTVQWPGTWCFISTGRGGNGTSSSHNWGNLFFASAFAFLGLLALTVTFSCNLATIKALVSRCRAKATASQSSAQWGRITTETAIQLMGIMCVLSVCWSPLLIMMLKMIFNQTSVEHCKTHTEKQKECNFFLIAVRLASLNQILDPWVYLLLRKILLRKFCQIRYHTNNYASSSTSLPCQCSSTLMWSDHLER
From the text: (§1) United States Patent Application Publication No. 20070129552, incorporated by reference herein, describes the methods used to obtain the in vitro data in the table below.

hDP = biological target: T2, hDP (Homo sapiens, UniProt Q13258); assay: Other receptors functional assay, hDP; format: cell-based
T2 sequence (Q13258 1-359): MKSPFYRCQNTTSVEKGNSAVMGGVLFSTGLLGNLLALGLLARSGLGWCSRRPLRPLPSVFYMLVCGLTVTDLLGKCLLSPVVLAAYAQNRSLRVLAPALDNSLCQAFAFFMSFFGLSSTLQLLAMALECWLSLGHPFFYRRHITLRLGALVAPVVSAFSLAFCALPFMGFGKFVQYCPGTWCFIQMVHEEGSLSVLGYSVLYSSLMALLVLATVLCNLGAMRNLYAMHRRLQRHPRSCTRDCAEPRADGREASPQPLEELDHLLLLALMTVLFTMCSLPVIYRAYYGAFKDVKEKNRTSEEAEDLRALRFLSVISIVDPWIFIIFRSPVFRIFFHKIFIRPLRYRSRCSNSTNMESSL
From the text: as §1

EP2 [1] = biological target: T3, EP2 (Homo sapiens, UniProt P43116); assay: EP2 binding (Ki)
T3 sequence (P43116 whole entry): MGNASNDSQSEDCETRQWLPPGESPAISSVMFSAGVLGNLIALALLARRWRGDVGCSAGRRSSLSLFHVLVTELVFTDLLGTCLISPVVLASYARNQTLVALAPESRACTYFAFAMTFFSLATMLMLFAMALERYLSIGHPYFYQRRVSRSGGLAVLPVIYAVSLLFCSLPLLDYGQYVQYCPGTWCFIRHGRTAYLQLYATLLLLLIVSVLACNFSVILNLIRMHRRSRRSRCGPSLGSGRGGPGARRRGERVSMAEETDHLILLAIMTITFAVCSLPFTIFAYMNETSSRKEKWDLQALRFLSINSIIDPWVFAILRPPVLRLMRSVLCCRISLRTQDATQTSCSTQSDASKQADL
From the text: as §1

EP4 [2] = biological target: T4, EP4 (Homo sapiens, UniProt P35408); assay: EP4 binding (KI)
T4 sequence (P35408 whole entry): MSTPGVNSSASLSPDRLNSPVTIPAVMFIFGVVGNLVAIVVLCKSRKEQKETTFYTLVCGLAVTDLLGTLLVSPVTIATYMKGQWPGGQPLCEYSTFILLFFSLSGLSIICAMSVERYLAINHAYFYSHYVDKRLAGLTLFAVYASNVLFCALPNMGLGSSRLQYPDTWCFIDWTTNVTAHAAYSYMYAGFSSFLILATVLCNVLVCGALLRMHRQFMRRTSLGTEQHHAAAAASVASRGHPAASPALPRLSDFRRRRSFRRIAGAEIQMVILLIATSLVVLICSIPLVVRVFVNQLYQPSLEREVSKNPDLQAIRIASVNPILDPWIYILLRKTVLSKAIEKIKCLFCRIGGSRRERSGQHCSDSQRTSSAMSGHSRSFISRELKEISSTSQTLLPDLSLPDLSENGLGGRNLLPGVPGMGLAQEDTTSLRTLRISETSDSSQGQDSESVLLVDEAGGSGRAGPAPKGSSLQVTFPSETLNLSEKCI
From the text: as §1

EP2 [3] = biological target: T3, EP2; assay: EP2 flipr functional assay; format: cell-based
From the text: as §1

EP4 [4] = biological target: T4, EP4; assay: EP4 flipr functional assay; format: cell-based
From the text: as §1

normotensive dogs = assay: Intraocular pressure and ocular surface hyperemia in normotensive dogs; format: in vivo; settings: 0.003%, once daily for 5 days
Procedure: (§2) U.S. Pat. No. 7,091,231 describes the methods used to carry out the tests reported below.
(§3) Isopropyl 5-(3-(3-(4-(1-hydroxyhexyl)phenyl)-2,5-dioxoimidazolidin-4-yl)propyl)thiophene-2-carboxylate (31) was tested in normotensive dogs at 0.003%, dosing once daily for 5 days. The maximum intraocular pressure (IOP) decrease from baseline was 7.7 mmHg (45%) at 102 h; the maximum ocular surface hyperemia (OSH) score was 2.5 at 26 h. This compound was also tested in laser-induced hypertensive monkeys, using one single day dose. At 0.003%, the maximum IOP decrease from baseline was 23 mmHg (53%) at 24 h.
(§4) Isopropyl 5-(3-(3-(4-hexanoylphenyl)-2,5-dioxoimidazolidin-4-yl)propyl)thiophene-2-carboxylate (32) was tested in normotensive dogs at 0.003%, dosing once daily for 5 days. The maximum intraocular pressure (IOP) decrease from baseline was 8.9 mmHg (48%) at 54 h; the maximum ocular surface hyperemia (OSH) score was 2.3 at 54 h. This compound was also tested in laser-induced hypertensive monkeys, using one single day dose. At 0.003%, the maximum IOP decrease from baseline was 19 mmHg (49%) at 24 h.

[5] = tested on: laser-induced hypertensive monkeys; assay: Intraocular pressure in laser-induced hypertensive monkeys; format: in vivo; settings: 0.003%, one single day dose, at 24 h
Procedure: as §2, §3, §4

| SMILES | EC50 (hEP3A) [nM] | EC50 (hDP) [nM] | pKi (EP2 [1]) | pKi (EP4 [2]) | pEC50 (EP2 [3]) | pEC50 (EP4 [4]) | maximum ocular surface hyperemia (OSH) score (normotensive dogs; at 26 h) | maximum ocular surface hyperemia (OSH) score (normotensive dogs; at 54 h) | maximum intraocular pressure (IOP) decrease from baseline (normotensive dogs; at 102 h) [mmHg] | maximum intraocular pressure (IOP) decrease from baseline (percent) (normotensive dogs; at 102 h) [%] | maximum IOP decrease from baseline [5] [mmHg] | maximum IOP decrease from baseline (percent) [5] [%] | maximum intraocular pressure (IOP) decrease from baseline (normotensive dogs; at 54 h) [mmHg] | maximum intraocular pressure (IOP) decrease from baseline (percent) (normotensive dogs; at 54 h) [%] |
| --- | --- | --- | --- | --- | --- | --- | --- | --- | --- | --- | --- | --- | --- | --- |
| CCCCC[C@H](O)c1ccc(N2C(=O)NC(=O)[C@@H]2CCCc2ccc(C(=O)O)s2)cc1 [Example 7, 5-(3-((S)-3-(4-((S)-1-hydroxyhexyl)phenyl)-2,5-dioxoimidazolidin-4-yl)propyl)thiophene-2-carboxylic acid] | 5 | > 10000 | 8.70 | 5.30 | 8.40 | – | – | – | – | – | – | – | – | – |
| CCCCC[C@H](O)c1ccc(N2C(=O)NC(=O)C2CCCc2ccc(C(=O)O)s2)cc1 (stereo in doubt) [Example 2, 5-(3-(3-(4-(1-hydroxyhexyl)phenyl)-2,5-dioxoimidazolidin-4-yl)propyl)thiophene-2-carboxylic acid] | 10 | 17400 | 8.30 | < 5.00 | 8.46 | – | – | – | – | – | – | – | – | – |
| CCCCCC(O)c1ccc(N2C(=O)NC(=O)C2CCCc2ccc(C(=O)OC(C)C)s2)cc1 (stereo not shown) [Example 31, Isopropyl 5-(3-(3-(4-(1-hydroxyhexyl)phenyl)-2,5-dioxoimidazolidin-4-yl)propyl)thiophene-2-carboxylate] | – | – | – | – | – | – | 2.5 | – | 7.7 | 45 | 23 | 53 | – | – |

Now from value to molecule, other results behind:

| EC50 (hEP3A) [nM] | EC50 (hDP) [nM] | pKi (EP2 [1]) | pKi (EP4 [2]) | pEC50 (EP2 [3]) | pEC50 (EP4 [4]) | maximum ocular surface hyperemia (OSH) score (normotensive dogs; at 26 h) | maximum ocular surface hyperemia (OSH) score (normotensive dogs; at 54 h) | SMILES | maximum intraocular pressure (IOP) decrease from baseline (normotensive dogs; at 102 h) [mmHg] | maximum intraocular pressure (IOP) decrease from baseline (percent) (normotensive dogs; at 102 h) [%] | maximum IOP decrease from baseline [5] [mmHg] | maximum IOP decrease from baseline (percent) [5] [%] | maximum intraocular pressure (IOP) decrease from baseline (normotensive dogs; at 54 h) [mmHg] | maximum intraocular pressure (IOP) decrease from baseline (percent) (normotensive dogs; at 54 h) [%] |
| --- | --- | --- | --- | --- | --- | --- | --- | --- | --- | --- | --- | --- | --- | --- |
| 131 | 8810 | 8.35 | 5.49 | 7.77 | 4.76 | – | – | CCCCCC(=O)c1ccc(N2C(=O)NC(=O)C2CCCc2ccc(C(=O)O)s2)cc1 (stereo not shown) [Example 1, 5-(3-(3-(4-hexanoylphenyl)-2,5-dioxoimidazolidin-4-yl)propyl)thiophene-2-carboxylic acid] | – | – | – | – | – | – |
| – | – | – | – | – | – | – | 2.3 | CCCCCC(=O)c1ccc(N2C(=O)NC(=O)C2CCCc2ccc(C(=O)OC(C)C)s2)cc1 (stereo not shown) [Example 32, Isopropyl 5-(3-(3-(4-hexanoylphenyl)-2,5-dioxoimidazolidin-4-yl)propyl)thiophene-2-carboxylate] | – | – | 19 | 49 | 8.9 | 48 |
| 29 | > 10000 | 8.40 | 5.14 | 7.64 | – | – | – | CCCCC[C@H](O)c1ccc(N2C(=O)NC(=O)[C@H]2CCCc2ccc(C(=O)O)s2)cc1 [Example 8, 5-(3-((R)-3-(4-((S)-1-hydroxyhexyl)phenyl)-2,5-dioxoimidazolidin-4-yl)propyl)thiophene-2-carboxylic acid] | – | – | – | – | – | – |
| 15 | 19300 | 9.00 | 5.14 | 9.00 | 5.70 | – | – | CCCCC[C@@H](O)c1ccc(N2C(=O)NC(=O)[C@@H]2CCCc2ccc(C(=O)O)s2)cc1 [Example 10, 5-(3-((S)-3-(4-((R)-1-hydroxyhexyl)phenyl)-2,5-dioxoimidazolidin-4-yl)propyl)thiophene-2-carboxylic acid] | – | – | – | – | – | – |
